Reference: the supplement of paper PMC10307832

How the values were obtained:
Assay in all cases: relative viability (nuclei count vs DMSO), 5 days (fraction); higher = more cells survive
[1] = compound: O=C(Nc1cc(C(F)(F)F)cc(C(F)(F)F)c1)c1cc(Cl)ccc1O [IMD-0354] + COc1cc2c(Oc3ccc(NC(=O)C4(C(=O)Nc5ccc(F)cc5)CC4)cc3F)ccnc2cc1OCCCN1CCOCC1 [Foretinib] (partner 0.25 µM)
How it was run: (§1)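 Values are medians from duplicate plates. Each reflects relative viability, defined as the nuclei count of treated wells over that of vehicle wells. Lung cancer cell lines in 1536-well plates were pin-tool dosed one day after seeding with one drug alone or with a fixed anchor-drug dose plus five library-drug doses (not always all listed) in √10 steps, then fixed, stained and imaged at 4× after 5 days.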

[2] = compound: Cc1cnc(CNC(=O)c2c(=O)c3ccc(N4CCCN(C)CC4)nc3n3c2sc2ccccc23)cn1 [CX-5461] + Cc1nc(Nc2ncc(C(=O)Nc3c(C)cccc3Cl)s2)cc(N2CCN(CCO)CC2)n1 [Dasatinib] (partner 0.075 µM)
How it was run: as §1

[3] = compound: O=C(Nc1cc(C(F)(F)F)cc(C(F)(F)F)c1)c1cc(Cl)ccc1O [IMD-0354] + N=C(N)NC(=N)NCCc1ccccc1 [Phenformin] (partner 250 µM)
How it was run: as §1

[4] = compound: Cc1cnc(CNC(=O)c2c(=O)c3ccc(N4CCCN(C)CC4)nc3n3c2sc2ccccc23)cn1 [CX-5461] + Cc1nc(NC(=O)N2CCC[C@H]2C(N)=O)sc1-c1ccnc(C(C)(C)C(F)(F)F)c1 [Alpelisib] (partner 2 µM)
How it was run: as §1

| Cell Line | relative viability ([1]; first compound 0.04 µM) | relative viability ([1]; first compound 0.1265 µM) | relative viability ([1]; first compound 0.4 µM) | relative viability ([1]; first compound 1.265 µM) | relative viability ([1]; first compound 4 µM) | relative viability ([2]; first compound 0.01 µM) | relative viability ([2]; first compound 0.03162 µM) | relative viability ([2]; first compound 0.1 µM) | relative viability ([2]; first compound 0.3162 µM) | relative viability ([2]; first compound 1 µM) | relative viability ([3]; first compound 0.04 µM) | relative viability ([3]; first compound 0.1265 µM) | relative viability ([3]; first compound 0.4 µM) | relative viability ([3]; first compound 1.265 µM) | relative viability ([3]; first compound 4 µM) | relative viability ([4]; first compound 0.01 µM) | relative viability ([4]; first compound 0.03162 µM) | relative viability ([4]; first compound 0.1 µM) | relative viability ([4]; first compound 0.3162 µM) | relative viability ([4]; first compound 1 µM) |
| --- | --- | --- | --- | --- | --- | --- | --- | --- | --- | --- | --- | --- | --- | --- | --- | --- | --- | --- | --- | --- |
| HCC-78 | 0.554 | 0.574 | 0.488 | 0.701 | 0.322 | 0.431 | 0.381 | 0.406 | 0.421 | 0.322 | 0.667 | 0.697 | 0.398 | 0.439 | 0.292 | 0.338 | 0.328 | 0.348 | 0.263 | 0.334 |
| HCC-366 | 0.837 | 1 | 0.441 | 0.216 | 0.046 | 0.678 | 0.597 | 0.627 | 0.68 | 0.106 | 0.574 | 0.562 | 0.276 | 0.0732 | 0.0339 | 0.591 | 0.529 | 0.33 | 0.507 | 0.234 |
| HCC-827 | 1.05 | 0.978 | 0.625 | 0.282 | 0.19 | 0.346 | 0.277 | 0.349 | 0.35 | 0.298 | 0.411 | 0.353 | 0.228 | 0.178 | 0.174 | 0.996 | 0.998 | 1.02 | 0.977 | 0.989 |
| HOP-62 | 1.13 | 1.03 | 0.42 | 0.449 | 0.118 | 0.724 | 0.661 | 0.704 | 0.675 | 0.489 | 0.842 | 0.482 | 0.363 | 0.12 | 0.165 | 1.12 | 1.09 | 1 | 1.35 | 1.05 |
| IA-LM | 1.17 | 1.17 | 0.384 | 0.42 | 0.0844 |  |  |  |  |  |  |  |  |  |  | 0.873 | 0.715 | 0.593 | 0.837 | 0.316 |
| LC-2-ad | 0.939 | 0.885 | 0.524 | 0.249 | 0.205 | 0.59 | 0.713 | 0.546 | 0.406 | 0.27 | 0.612 | 0.548 | 0.232 | 0.267 | 0.17 | 0.885 | 0.9 | 0.805 | 0.981 | 0.561 |
| LCLC-97TM1 | 0.929 | 0.824 | 0.673 | 0.34 | 0.164 | 0.755 | 0.873 | 0.791 |  | 0.701 | 0.43 | 0.451 | 0.234 | 0.18 | 0.126 | 0.233 | 0.269 | 0.217 |  | 0.245 |
| LCLC-103H | 0.745 | 0.865 | 0.45 | 0.335 | 0.216 | 0.527 | 0.583 | 0.384 | 0.609 | 0.53 | 0.39 | 0.304 | 0.197 | 0.214 | 0.177 | 1.04 | 0.925 | 0.985 | 1.03 | 0.921 |
| LK-2 | 1.76 | 1.14 | 0.515 | 1.11 | 0.222 | 0.258 | 0.229 | 0.251 |  | 0.195 | 0.641 | 0.382 | 0.41 | 0.22 | 0.265 |  | 1.22 | 1.37 |  | 0.864 |
| LOU-NH91 | 0.976 | 0.981 | 0.575 | 0.154 | 0.134 | 0.677 | 0.511 | 0.602 |  | 0.532 | 0.498 | 0.393 | 0.208 | 0.143 | 0.166 | 0.812 | 0.739 | 0.703 | 0.677 | 0.64 |
| LU99A | 0.655 | 0.806 | 0.612 | 0.682 | 0.273 | 0.759 | 0.499 | 0.439 | 0.341 | 0.172 | 0.529 | 0.826 | 0.417 | 0.218 | 0.265 | 0.536 | 0.544 | 0.527 | 0.364 | 0.413 |
| LXF-289 | 0.945 | 0.99 | 0.646 | 0.483 | 0.129 | 0.257 | 0.204 | 0.202 | 0.103 | 0.154 | 0.548 | 0.504 | 0.329 | 0.124 | 0.0658 | 1.03 | 1.07 | 1.06 | 0.916 | 1.02 |
| NCI-H522 |  |  |  |  |  | 0.886 | 1.04 | 0.916 |  | 0.742 | 0.614 | 0.666 | 0.464 | 0.61 | 0.383 |  |  |  |  |  |
| NCI-H1299 | 1.03 | 1.06 | 0.787 | 0.267 | 0.179 |  |  |  |  |  |  |  |  |  |  | 1.04 | 1.04 | 1.08 | 1.1 | 0.992 |
| NCI-H1623 | 0.896 | 0.908 | 0.764 | 0.687 | 0.457 | 0.524 | 0.473 | 0.521 | 0.568 | 0.534 | 0.565 | 0.621 | 0.459 | 0.364 | 0.385 |  |  |  |  |  |
| NCI-H1650 | 1.32 | 1.1 | 0.581 | 0.207 | 0.245 | 0.355 | 0.326 | 0.195 | 0.305 | 0.14 | 0.46 | 0.396 | 0.304 | 0.174 | 0.209 |  |  |  |  |  |
| NCI-H1703 | 0.407 | 0.347 | 0.368 | 0.299 | 0.16 |  |  |  |  |  |  |  |  |  |  | 0.314 | 0.419 | 0.28 | 0.332 | 0.267 |
| NCI-H1792 |  |  |  |  |  | 0.738 | 0.893 | 0.825 | 0.95 | 0.613 | 0.175 | 0.225 | 0.226 | 0.167 | 0.139 | 0.774 | 0.744 | 0.706 | 0.898 | 0.602 |
| NCI-H2342 | 1.08 | 0.98 | 0.794 | 0.735 | 0.453 | 0.311 | 0.317 | 0.308 | 0.335 | 0.285 | 0.632 | 0.593 | 0.455 | 0.4 | 0.383 |  |  |  |  |  |
| SW 900 | 0.886 | 0.787 | 0.444 | 0.562 | 0.246 | 0.45 | 0.541 | 0.701 | 0.4 | 0.211 | 0.661 | 0.48 | 0.302 | 0.185 | 0.202 |  |  |  |  |  |
